Laboratory results: patent EP4574152A1, “POTASSIUM CHANNEL ACTIVATORS FOR USE IN THE TREATMENT OF EPILEPTIC DISORDERS” (Fraunhofer-Gesellschaft zur Förderung der angewandten …, priority 2023, dated 2025)
Read-outs that look alike come from different tables or passages of the source.

How the values were obtained:
audiogenic seizures = audiogenic seizures in DBA/2 mice; assay type: in vivo; settings: limits in brackets; for ED50: Mus musculus, ip; for ED50 Values (mg/Kg) Clonus / ED50 Values (mg/Kg) Tonus / ED50 Values (mg/Kg) Wild Running: i.p.
Method: (§1) JNJ-37822681 was tested in two animal models of acute seizures widely used for the evaluation of new ASMs: 1. a mouse model of generalized myoclonic seizures such as acute exposure to the GABAA receptor antagonist pentylenetetrazol (PTZ); 2. audiogenic seizures induced in genetically epilepsy-prone DBA/2 mice.
(§2) In both animal models, retigabine or JNJ-37822681 were administered i.p, 30 minutes before seizures induction with PTZ or sounds.

[1] = target: T1, Kv7.2 channels carrying the W236L mutation (Homo sapiens, UniProt O43526, W236L); experiment: patch-clamp on homomeric Kv7.2 channels carrying the W236L mutation; assay type: cell-based; settings: 10 µM
T1 construct: expressed in transfected cells

Kv7.2+Kv7.3 channels = target: T2, Kv7.2+Kv7.3 channels (Homo sapiens, UniProt O43525+O43526); experiment: whole-cell patch-clamp in CHO cells expressing Kv7.2+Kv7.3 channels; assay type: cell-based; settings: calculated from dose-response curves, Kv7.2/7.3 currents
T2 construct: expressed in transfected cells; host or cells: CHO
From the text: (§3) JNJ-37822681 efficacy in opening Kv7 channels was further investigated through the whole-cell patch-clamp electrophysiological technique, the gold standard technique for investigating ion channels activity and pharmacological modulation.

Kv7.3 A315T [2] = target: T3, Kv7.3 A315T (Homo sapiens, UniProt O43525, A315T); experiment: fluorescence-based thallium flux assay (FluxOR) in CHO cells stably transfected with Kv7.3 A315T; assay type: cell-based; settings: for maximum activities: relative to retigabine
T3 construct: expressed in transfected cells; host or cells: CHO, transient
From the text: The Fraunhofer repurposing library was initially screened in a cellular model represented by Chinese hamster ovary cells (CHO) stably transfected with a variant of the Kv7.3 channel (carrying the mutation A315T to enhance current size and increase the signal-to-noise ratio). The Kv7.3 A315T cell line was used in a fluorescence-based thallium flux assay (FluxOR, Thermofisher) optimized as a read-out for Kv7 channel function, using retigabine as a positive control.
Compounds in the Fraunhofer repurposing library were tested in Kv7.3 A315T-expressing cells at 10 µM and their Kv7 opening effect was compared to that observed with 10 µM retigabine.

Kv7.3 A315T [3] = target: T3, Kv7.3 A315T; experiment: whole-cell patch-clamp in CHO cells transiently transfected with Kv7.3 A315T cDNA; assay type: cell-based
Method: as §3
In order to better evaluate the quantitative differences occurring in Kv7-opening ability between retigabine, and JNJ-37822681, dose-response experiments (0.01-30 µM) were performed to calculate EC50s using the functional parameters of ΔV1/2 (Figure 1C).

PTZ-induced seizures = PTZ-induced seizures in mice; assay type: in vivo, C57BL/6J mice; settings: for ED50: Mus musculus, ip; for ED50 Values (mg/Kg) Clonus / ED50 Values (mg/Kg) Tonus: i.p.
Method: as §1, §2

[4] = 30 minutes before seizures induction with sounds
[5] = 30 minutes before seizures induction with PTZ, limits in brackets

SMILES: Fc1ccc(CN2CCC(Nc3ccc(C(F)(F)F)nn3)CC2)cc1F [JNJ-37822681, N-[1-[(3,4-difluorophenyl)methyl]-4-piperidinyl]-6-(trifluoromethyl)-3-pyridazinamine]
- ED50 (audiogenic seizures; 30 minutes before seizures induction with sounds, read-out: ED50 Values (mg/Kg) Clonus): 6 mg/kg
- ED50 (audiogenic seizures; 30 minutes before seizures induction with sounds, read-out: ED50 Values (mg/Kg) Tonus): 3 mg/kg
- ED50 (audiogenic seizures; 30 minutes before seizures induction with sounds, read-out: ED50 Values (mg/Kg) Wild Running): 11 mg/kg
- ED50 Values (mg/Kg) Clonus (audiogenic seizures; [4]): 6 (5-9) mg/Kg
- ED50 Values (mg/Kg) Tonus (audiogenic seizures; [4]): 3 (2-5) mg/Kg
- ED50 Values (mg/Kg) Wild Running (audiogenic seizures; [4]): 11 (8-13) mg/Kg
- activation of Kv7.2 channels carrying the W236L mutation [1]: failed to activate
- EC50 (Kv7.2+Kv7.3 channels): 1.2 ± 0.3 µM
- maximum activities (Kv7.3 A315T [2]; FluxOR assay): 83.8%
- EC50 (Kv7.3 A315T [2]; FluxOR assay, ten-point dose-response curve from 0.5 nM to 10 µM, read-out: EC50): 0.14 µM
- EC50 (Kv7.3 A315T [3]; calculated from ΔV1/2, dose-response 0.01-30 µM, read-out: EC50): 2 ± 0.03 µM
- maximal ΔV1/2 (Kv7.3 A315T [3]; dose-response 0.01-30 µM): 37.0±5.4 mV
- leftward shift of the channel voltage-dependence of activation (ΔV1/2) (Kv7.3 A315T [3]; perfusion with 1 µM): qualitatively similar effects
- ED50 (PTZ-induced seizures; 30 minutes before seizures induction with PTZ, limits in brackets, read-out: ED50 Values (mg/Kg) Clonus): 15 mg/kg
- ED50 (PTZ-induced seizures; 30 minutes before seizures induction with PTZ, limits in brackets, read-out: ED50 Values (mg/Kg) Tonus): 9 mg/kg
- ED50 Values (mg/Kg) Clonus (PTZ-induced seizures; [5]): 15 (12-18) mg/Kg
- ED50 Values (mg/Kg) Tonus (PTZ-induced seizures; [5]): 9 (6-13) mg/Kg

SMILES: CCOC(=O)Nc1ccc(NCc2ccc(F)cc2)cc1N [retigabine, reference compound]
- ED50 (audiogenic seizures; read-out: ED50 Values (mg/Kg) Clonus, i.p., 30 minutes before seizures induction with sounds): 7 mg/kg
- ED50 (audiogenic seizures; read-out: ED50 Values (mg/Kg) Tonus, i.p., 30 minutes before seizures induction with sounds): 4.6 mg/kg
- ED50 (audiogenic seizures; read-out: ED50 Values (mg/Kg) Wild Running, i.p., 30 minutes before seizures induction with sounds): 12 mg/kg
- ED50 Values (mg/Kg) Clonus (audiogenic seizures; [4]): 6.9 (4.3-11) mg/Kg
- ED50 Values (mg/Kg) Tonus (audiogenic seizures; [4]): 4.6 (3.6-6) mg/Kg
- ED50 Values (mg/Kg) Wild Running (audiogenic seizures; [4]): 12.4 (9-17.3) mg/Kg
- EC50 (Kv7.3 A315T [2]): 0.3 µM
- maximum activities (Kv7.3 A315T [2]; FluxOR assay): 100%
- EC50 (Kv7.3 A315T [3]): 0.6 ± 0.1 µM
- ED50 (PTZ-induced seizures; read-out: ED50 Values (mg/Kg) Clonus): 13 mg/kg
- ED50 (PTZ-induced seizures; read-out: ED50 Values (mg/Kg) Tonus): 9 mg/kg
- ED50 Values (mg/Kg) Clonus (PTZ-induced seizures; [5]): 13 (9.2-18.5) mg/Kg
- ED50 Values (mg/Kg) Tonus (PTZ-induced seizures; [5]): 9 (7-12) mg/Kg
